We go through 14 molecules from PubChem BioAssay AID328 (DTP/NCI, 2004).

This assay concerns BDF1 mice, P388 leukemia ip, median survival T/C. Briefly: NCI In Vivo Anticancer Drug Screen. Data for tumor model P388 Leukemia (intraperitoneal) in B6D2F1 (BDF1) mice. Particulars: endpoint: median survival time, higher = longer survival. The gist of the method: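 Steps: implant the tumour, treat one group with compound and another with vehicle, record survival, then divide treated by control.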

Where [1] appears, read: dose: 100.0 mg/kg/injection, schedule: Q01DX001 (ip), vehicle: saline with Tween-80.
[2] abbreviates: dose: 200.0 mg/kg/injection, schedule: Q01DX001 (ip), vehicle: saline with Tween-80.
[3] abbreviates: dose: 400.0 mg/kg/injection, schedule: Q01DX001 (ip), vehicle: saline with Tween-80.
[4] abbreviates: dose: 100.0 mg/kg/injection, schedule: Q01DX009 (ip), vehicle: Klucel (hydroxypropylcellulose) (HPC).
[5] abbreviates: dose: 100.0 mg/kg/injection, schedule: Q04DX003 (ip), vehicle: Klucel (hydroxypropylcellulose) (HPC).
The mark [6] stands for this setting: dose: 200.0 mg/kg/injection, schedule: Q01DX009 (ip), vehicle: Klucel (hydroxypropylcellulose) (HPC).
Where [7] appears, read: dose: 200.0 mg/kg/injection, schedule: Q04DX003 (ip), vehicle: Klucel (hydroxypropylcellulose) (HPC).
Where [8] appears, read: dose: 400.0 mg/kg/injection, schedule: Q01DX009 (ip), vehicle: Klucel (hydroxypropylcellulose) (HPC).
Where [9] appears, read: dose: 400.0 mg/kg/injection, schedule: Q04DX003 (ip), vehicle: Klucel (hydroxypropylcellulose) (HPC).
[10] abbreviates: dose: 50.0 mg/kg/injection, schedule: Q04DX003 (ip), vehicle: saline with Tween-80.

SMILES strings stand for the structures. Several values for one entry are separate records, joined by “and”; a condition that tells them apart may be missing. Identical values can stand only once. Toxic doses and inconclusive results are not listed.

Consider `Cc1cc2c([nH]c1=O)C(=O)c1c(O)cccc1C2=O`, for which the T/C is, setting by setting: (dose: 2.5 mg/kg/injection, schedule: Q01DX009 (ip), vehicle: Klucel (hydroxypropylcellulose) (HPC)) 103 % of control; (dose: 5.0 mg/kg/injection, schedule: Q01DX009 (ip), vehicle: Klucel (hydroxypropylcellulose) (HPC)) 108 % of control; (dose: 10.0 mg/kg/injection, schedule: Q01DX009 (ip), vehicle: Klucel (hydroxypropylcellulose) (HPC)) 103 % of control; (dose: 20.0 mg/kg/injection, schedule: Q01DX009 (ip), vehicle: Klucel (hydroxypropylcellulose) (HPC)) 104 % of control; (dose: 40.0 mg/kg/injection, schedule: Q01DX009 (ip), vehicle: Klucel (hydroxypropylcellulose) (HPC)) 95 % of control; (dose: 80.0 mg/kg/injection, schedule: Q01DX009 (ip), vehicle: Klucel (hydroxypropylcellulose) (HPC)) 115 % of control.

Take `C1=CCC(COC(c2ccccc2)(c2ccccc2)c2ccccc2)C(COC(c2ccccc2)(c2ccccc2)c2ccccc2)C1` (stereo not drawn): the T/C runs as follows: under setting [1], 93 % of control; under setting [2], 96 % of control; under setting [3], 88 % of control.

As to `COc1cc([N+](=O)[O-])c(/C=C2/c3cc(OC)c(OC)cc3CCN2C)cc1Br`, the T/C was 109 % of control under setting [4]; 100 % of control under setting [5]; 90 % of control under setting [6]; 100 % of control under setting [7]; 104 % of control under setting [8]; 100 % of control under setting [9].

Turning to `CN(C(=O)N(C)c1ccccc1)c1ccccc1`, the T/C was 100 % of control under setting [4]; 91 % of control under setting [5]; 90 % of control under setting [6]; 91 % of control under setting [7]; 100 % of control under setting [8]; 87 % of control under setting [9].

As for `CCOC(=O)C(=O)CC(=O)/C=C/c1ccccc1`, the T/C is 96 % of control (dose: 100.0 mg/kg/injection, schedule: Q01DX009 (ip), vehicle: saline with Tween-80) and 107 % of control (dose: 200.0 mg/kg/injection, schedule: Q01DX009 (ip), vehicle: saline with Tween-80).

Consider `O=C1OC(c2ccccc2)CC1NCc1ccccc1` (stereo not drawn), for which the T/C under setting [1] is 100 % of control, the T/C under setting [2] is 100 % of control and the T/C under setting [3] is 100 % of control.

On to `O=C(Nc1ccc2ccccc2c1)c1ccccc1`, for which the T/C reads like this: (dose: 100.0 mg/kg/injection, schedule: Q01DX001 (ip), vehicle: saline sonified) 95 % of control; (dose: 200.0 mg/kg/injection, schedule: Q01DX001 (ip), vehicle: saline sonified) 100 % of control; (dose: 400.0 mg/kg/injection, schedule: Q01DX001 (ip), vehicle: saline sonified) 100 % of control.

`COc1cc(C=Nc2cc(Cl)c(O)c(Cl)c2)ccc1N(CCCl)CCCl`: the T/C (dose: 5.0 mg/kg/injection, schedule: Q04DX003 (ip), vehicle: saline with Tween-80) was 181 % of control; the T/C (dose: 8.0 mg/kg/injection, schedule: Q04DX003 (ip), vehicle: saline with Tween-80) was 222 % of control; the T/C (dose: 12.0 mg/kg/injection, schedule: Q04DX003 (ip), vehicle: saline with Tween-80) is 231 % of control and 211 % of control; the T/C (dose: 12.5 mg/kg/injection, schedule: Q04DX003 (ip), vehicle: saline with Tween-80) is 111 % of control; the T/C (dose: 17.0 mg/kg/injection, schedule: Q04DX003 (ip), vehicle: saline with Tween-80) is 196 % of control; the T/C (dose: 25.0 mg/kg/injection, schedule: Q04DX003 (ip), vehicle: saline with Tween-80) is 215 % of control. Besides, the T/C was 230 % of control (dose: 37.5 mg/kg/injection, schedule: Q04DX003 (ip), vehicle: saline with Tween-80) and 100 % of control under setting [10].

Regarding `Cc1cc(Sc2ccc(Cl)cc2)nc(Sc2ccc(Cl)cc2)c1C#N`, the T/C was 94 % of control (dose: 50.0 mg/kg/injection, schedule: Q01DX005 (ip), vehicle: saline with Tween-80); 88 % of control (dose: 100.0 mg/kg/injection, schedule: Q01DX005 (ip), vehicle: saline with Tween-80); 91 % of control (dose: 200.0 mg/kg/injection, schedule: Q01DX005 (ip), vehicle: saline with Tween-80).

Turning to `COc1c(O)c(O)c2c3c(c(O)c4c2c1C(=O)C=C4C)C(C)(C)C(C)O3` (stereo not drawn), the T/C (dose: 50.0 mg/kg/injection, schedule: Q04DX001 (ip), vehicle: saline) is 104 % of control; the T/C (dose: 100.0 mg/kg/injection, schedule: Q04DX001 (ip), vehicle: saline) is 100 % of control; the T/C (dose: 200.0 mg/kg/injection, schedule: Q04DX001 (ip), vehicle: saline) was 100 % of control.

With `CCN(CC)c1ccc(N)cc1`, the T/C (dose: 6.25 mg/kg/injection, schedule: Q04DX003 (ip), vehicle: other) was 100 % of control; the T/C (dose: 12.5 mg/kg/injection, schedule: Q01DX009 (ip), vehicle: other) is 100 % of control; the T/C (dose: 12.5 mg/kg/injection, schedule: Q04DX003 (ip), vehicle: other) is 115 % of control; the T/C (dose: 25.0 mg/kg/injection, schedule: Q01DX009 (ip), vehicle: other) is 120 % of control; the T/C (dose: 25.0 mg/kg/injection, schedule: Q04DX003 (ip), vehicle: other) was 110 % of control.

On to `Clc1nc2nc(Cl)n(Cl)c2nc1Cl`, for which the T/C by setting is: (dose: 12.5 mg/kg/injection, schedule: Q01DX006 (ip), vehicle: saline with Tween-80) 100 % of control; (dose: 25.0 mg/kg/injection, schedule: Q01DX006 (ip), vehicle: saline with Tween-80) 91 % of control; (dose: 25.0 mg/kg/injection, schedule: Q01DX009 (ip), vehicle: saline with Tween-80) 86 % of control; (dose: 25.0 mg/kg/injection, schedule: Q01DX009 (ip), vehicle: water) 109 % of control; (dose: 50.0 mg/kg/injection, schedule: Q01DX006 (ip), vehicle: saline with Tween-80) 109 % of control; (dose: 50.0 mg/kg/injection, schedule: Q01DX009 (ip), vehicle: saline with Tween-80) 86 % of control. The T/C was 105 % of control under setting [10]; 111 % of control (dose: 100.0 mg/kg/injection, schedule: Q01DX009 (ip), vehicle: water); 105 % of control (dose: 100.0 mg/kg/injection, schedule: Q04DX003 (ip), vehicle: saline with Tween-80); 116 % of control (dose: 200.0 mg/kg/injection, schedule: Q01DX009 (ip), vehicle: water); 112 % of control (dose: 200.0 mg/kg/injection, schedule: Q04DX003 (ip), vehicle: saline with Tween-80).

Regarding `CN(C)c1ccc(N=Cc2cc[n+](C)cc2)cc1`, the T/C is 104 % of control (dose: 12.5 mg/kg/injection, schedule: Q01DX009 (ip), vehicle: saline); 116 % of control and 122 % of control (dose: 16.5 mg/kg/injection, schedule: Q01DX009 (ip), vehicle: saline); 101 % of control (dose: 25.0 mg/kg/injection, schedule: Q01DX009 (ip), vehicle: saline); 109 % of control and 118 % of control (dose: 37.5 mg/kg/injection, schedule: Q01DX009 (ip), vehicle: saline); 118 % of control (dose: 50.0 mg/kg/injection, schedule: Q01DX009 (ip), vehicle: saline).

For the molecule `ClCCN(CCCl)CCCN1c2ccccc2Sc2ccc(Cl)cc21`, the T/C reads like this: (dose: 3.12 mg/kg/injection, schedule: Q04DX003 (ip), vehicle: saline) 97 % of control; (dose: 6.25 mg/kg/injection, schedule: Q04DX003 (ip), vehicle: saline with Tween-80) 154 % of control; (dose: 6.25 mg/kg/injection, schedule: Q04DX003 (ip), vehicle: saline) 97 % of control; (dose: 12.5 mg/kg/injection, schedule: Q04DX003 (ip), vehicle: saline) 94 % of control.
